According to PubChem BioAssay (NCI):
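Growth conditions: 96-well plates. Treatment: test compound, 48 hours, 5 concentrations. Analysis: linear interpolation between bracketing concentrations; unreached endpoints set to highest concentration. At the GI50, growth is halved. The concentration for full growth arrest is given as TGI.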

Columns and labels:
Assay in all cases: growth of human tumour cells (NCI), 48 h
[1] = test system: MOLT-4 leukemia
[2] = test system: SW-620 colon
[3] = test system: CCRF-CEM leukemia
[4] = test system: M14 melanoma
[5] = test system: HT29 colon
[6] = test system: SR leukemia
[7] = test system: SK-OV-3 ovarian
[8] = test system: ACHN renal
[9] = test system: UACC-62 melanoma
[10] = test system: HCC-2998 colon

SMILES: CC(C)C(Br)C(=O)NCC(=O)O (configuration not stated)
- TGI [1]: > 100 µM
- TGI [2]: > 100 µM
- TGI [3]: > 100 µM
- TGI [4]: > 100 µM
- TGI [5]: > 100 µM
- TGI [6]: > 100 µM
- TGI [7]: > 100 µM
- TGI [8]: > 100 µM
- TGI [9]: > 100 µM

SMILES: CCCCC[C@H]1C/C=C2/C(=O)C=C[C@@H]2C/C=C\CCCC(=O)O1
- GI50 [1]: 0.143 µM
- TGI [1]: 1.06 µM
- GI50 [2]: 0.177 µM
- TGI [2]: 1.06 µM
- GI50 [3]: 0.106 µM
- TGI [3]: 5 µM
- GI50 [4]: 0.163 µM
- TGI [4]: 5.1 µM
- GI50 [5]: 0.128 µM
- TGI [5]: 0.278 µM
- GI50 [10]: 0.096 µM
- TGI [10]: 0.179 µM
- GI50 [6]: 0.124 µM
- TGI [6]: 50 µM
- GI50 [7]: 0.364 µM
- TGI [7]: 6.11 µM
- GI50 [8]: 0.0987 µM
- TGI [8]: 0.202 µM

SMILES: O=C(Nc1ccccc1)N1C(c2ccccc2)=N[C@@H](c2ccccc2)[C@@H]1c1ccccc1
- TGI [1]: 44.5 µM
- TGI [2]: 35.2 µM
- TGI [3]: 60 µM
- TGI [4]: 28.2 µM
- TGI [5]: 31.6 µM
- TGI [10]: 35.2 µM
- TGI [6]: 40.4 µM
- TGI [8]: 31.4 µM
- TGI [9]: 34.7 µM

SMILES: O=C(O)C(Cc1ccccc1)N1C(=O)/C(=C/C(Cl)=C/c2ccc([N+](=O)[O-])cc2)SC1=S (configuration not stated)
- GI50 [1]: 3.14 µM
- TGI [1]: > 100 µM
- GI50 [3]: 2.92 µM
- TGI [3]: > 100 µM
- GI50 [5]: 2.84 µM
- TGI [5]: 8.47 µM
- GI50 [10]: 1.96 µM
- TGI [10]: 3.5 µM
- GI50 [6]: 2.45 µM
- TGI [6]: > 100 µM
- GI50 [7]: 4.13 µM
- TGI [7]: > 100 µM
- GI50 [8]: 1.8 µM
- TGI [8]: 3.3 µM
- GI50 [9]: 2 µM
- TGI [9]: 4.85 µM

SMILES: COc1cc(N)c(Cl)cc1C(=O)N[C@@H]1CCN(CCCOc2ccc(F)cc2)C[C@@H]1OC
- GI50 [1]: 29.8 µM
- TGI [1]: > 100 µM
- GI50 [2]: > 100 µM
- TGI [2]: > 100 µM
- GI50 [4]: 27.4 µM
- TGI [4]: 88.8 µM
- GI50 [5]: 20.5 µM
- TGI [5]: > 100 µM
- GI50 [10]: 35.2 µM
- TGI [10]: > 100 µM
- GI50 [6]: 13.6 µM
- TGI [6]: 50.4 µM
- GI50 [7]: > 100 µM
- TGI [7]: > 100 µM
- GI50 [8]: > 100 µM
- TGI [8]: > 100 µM
- GI50 [9]: 67.6 µM
- TGI [9]: > 100 µM

SMILES: Cc1cccc(C=NC23CC4CC(CC(C4)C2)C3)c1
- TGI [1]: > 100 µM
- TGI [2]: > 100 µM
- TGI [3]: > 100 µM
- TGI [4]: > 100 µM
- TGI [5]: > 100 µM
- TGI [10]: > 100 µM
- TGI [7]: > 100 µM
- TGI [8]: > 100 µM
- TGI [9]: > 100 µM

SMILES: COc1ccc(-c2cn3ccnc3c(-c3ccc(Cl)cc3)n2)cc1
- GI50 [1]: 4.9 µM
- TGI [1]: > 100 µM
- GI50 [2]: 4.51 µM
- TGI [2]: > 100 µM
- GI50 [4]: 5.95 µM
- TGI [4]: > 100 µM
- GI50 [5]: 6.66 µM
- TGI [5]: > 100 µM
- GI50 [6]: 1.71 µM
- TGI [6]: > 100 µM
- GI50 [7]: 20.7 µM
- TGI [7]: > 100 µM
- GI50 [8]: 10.5 µM
- TGI [8]: 47 µM
- GI50 [9]: 19.4 µM
- TGI [9]: > 100 µM

SMILES: c1ccc(C2N=C(c3ccccn3)C(c3ccccn3)=NC2c2ccccc2)cc1 (configuration not stated)
- TGI [1]: > 100 µM
- TGI [2]: > 100 µM
- TGI [3]: > 100 µM
- TGI [4]: > 100 µM
- TGI [5]: > 100 µM
- TGI [10]: > 100 µM
- TGI [7]: > 100 µM
- TGI [8]: > 100 µM
- TGI [9]: > 100 µM

SMILES: C[C@@H]1CC2(C[C@@H](C)C3[C@@H](CC4(C)CCCC5C6=CC(O)(CC[C@]34C)OC6=CC(=O)OC5(C)C)O2)OC1=O (some centres not stated)
- TGI [1]: > 100 µM
- TGI [2]: > 100 µM
- TGI [4]: > 100 µM
- TGI [10]: > 100 µM
- TGI [6]: > 100 µM
- TGI [7]: > 100 µM
- TGI [8]: > 100 µM
- TGI [9]: > 100 µM
